Data as given in US20050154066A1, “Antiaging composition” (KANEKA CORPORATION, priority 2004, published 2005).

Experiments:
rats = conditions: administered every day for 52 weeks at 1,200 mg/kg/day (Williams et al. 1999); cited from earlier work
[1] = in vitro; cited from earlier work
[2] = tested on: Aging-accelerated model mice (SAMP1); assay: Aging preventing (retarding) effect in aging-accelerated model mice, aging degree score; format: in vivo; conditions: SAMP1 female mice, about 150 to 250 mg/kg/day; for aging degree score (increase): feed containing 0.2% test substance, versus control feed, FIG. 1 / FIG. 2
Excerpt: In evaluating such antiaging effects, for example, aging-accelerated model mice, can be used as an in vivo evaluation model. This mouse is a model mouse discovered and bred at Kyoto University, Japan, which develops the state of aging early and markedly.
Aging-accelerated model mice (SAMP1, 3-week-old females) were allowed free access to a feed (CE-2, product of CLEA Japan, Inc.) containing 0.2% reduced coenzyme Q10 (containing about 1% of oxidized coenzyme Q10) obtained in Production Example 1, and the aging degree of each mouse was quantified with time according to the aging degree score mentioned below. The dose of reduced coenzyme Q10 as estimated from the feed consumption and animal weight corresponded to about 150 to 250 mg/kg/day. A control group was given the feed alone (CE-2, product of CLEA Japan, Inc.).
The aging-accelerated model mice used were model mice discovered and bred at Kyoto University which develop the state of aging early and markedly. These mice show the state of aging quite similar to that of humans, and are useful model animals for in vivo testing for antiaging effects. The aging degree scoring system employed was the scoring system established by the Council for SAM Research. Thus, scores of 0 to 4 were given to each animal with respect to each of the following 11 items: 1: decrease in activity (searching behavior), 2: decrease in passivity (pinching escaping behavior), 3: loss of hair luster, 4: roughening of hair, 5: loss of hair, 6: skin ulcer, 7: periophthalmic lesions (blepharitis and periophthalmic erosion), 8: corneal clouding, 9: corneal ulcer, 10: cataract, 11: increased anterior or backward spinal curvature. The conditions found in a group of young mice about 3 months of age were taken as standards and given the score 0 (zero). Thus, a higher score indicates more advanced aging.
The test of Example 1 was performed in the same manner except that oxidized coenzyme Q10 was used in lieu of reduced coenzyme Q10. […]

Q: With `COC1=C(OC)C(=O)C(C/C=C(\C)CC/C=C(\C)CC/C=C(\C)CC/C=C(\C)CC/C=C(\C)CC/C=C(\C)CC/C=C(\C)CC/C=C(\C)CC/C=C(\C)CCC=C(C)C)=C(C)C1=O` [coenzyme Q10] as the compound, how does the toxic effect (rats) read?
A: no toxic effect

Q: Which results are given for `COC1=C(OC)C(=O)C(C/C=C(\C)CC/C=C(\C)CC/C=C(\C)CC/C=C(\C)CC/C=C(\C)CC/C=C(\C)CC/C=C(\C)CC/C=C(\C)CC/C=C(\C)CCC=C(C)C)=C(C)C1=O` [oxidized coenzyme Q10]?
A: antioxidant activity [1]: does not show antioxidant activity; aging degree score (increase) [2]: suppressed to a certain extent; aging preventing effect compared with reduced coenzyme Q10 ([2]; feed, FIG. 2 vs FIG. 1): weak

Q: For `COc1c(O)c(C)c(C/C=C(\C)CC/C=C(\C)CC/C=C(\C)CC/C=C(\C)CC/C=C(\C)CC/C=C(\C)CC/C=C(\C)CC/C=C(\C)CC/C=C(\C)CCC=C(C)C)c(O)c1OC` [reduced coenzyme Q10], which antioxidant activity [1] is on record?
A: shows antioxidant activity

Q: And the “aging degree score (increase)” value [2]?
A: distinctly prevented from increasing
